Reference: US20140199347A1, “ADJUVANT COMPOSITIONS WITH 4-1BBL” (UNIVERSITY OF LOUISVILLE RESEARCH FOUNDATION, INC., priority 2011, published 2014)

Assays:
[1] = test system: 3LL pulmonary metastatic tumors; assay: 3LL pulmonary metastasis model, vaccination with survivin; format: in vivo, mice; conditions: single subcutaneous vaccination day 6 with SVN 50 μg plus adjuvant; lungs day 27
Protocol: For the pulmonary tumor model, 2×10^5 live 3LL cells were injected intravenously into the tail vein of mice. Mice were vaccinated subcutaneously either once on day 6 or twice on days 6 and 13 post-tumor challenge with various vaccine formulations containing survivin (SVN) protein (50 μg) alone as control or with SA-4-1BBL (25 μg), MPL (25 gig), or the combination of both agents (25 μg/agent). Mice were euthanized 27 days post-tumor challenge for analysis of lung tumor burden as described (12, 18).

[2] = test system: E749-57 peptide-specific CD8^+ T cells; assay: Primary CD8+ T cell intracellular IFN-γ response of tumor draining lymphocytes; format: in vivo, mice; conditions: one week post-vaccination
Protocol: (§1) Spleens and/or tumor draining lymph nodes (TdLNs) were processed as described previously (7). For memory T cell typing, lymphocytes were stained with anti-CD8-APC-Cy7, anti-CD62L-FITC, and anti-CD44-APC antibodies. For intracellular cytokine staining, lymphocytes (1×10^6 cells/mL) were stimulated either with 10 μg/mL E749-57 peptide for 2 hrs followed by incubation with GolgiPlug (1 μl/mL, BD PharMingen) overnight or with phorbol 12-myristate 13-acetate (PMA) (5 ng/ml, Sigma) and ionomycin (500 ng/ml, Sigma) for 2 hrs followed by incubation with GolgiPlug (1 μl/ml) for an additional 4 hrs. Cells were first stained with anti-CD44-APC and anti-CD8-APC-Cy7, fixed with 4% paraformaldehyde, and then stained with anti-IFN-γ-PE-Cy7, anti-IL-2-Percp-Cy5.5, anti-TNF-PE, or isotype controls followed by acquisition and analysis as previously reported (12). Intratumoral CD8^+ T cells and CD4^+Foxp3^+ Treg cells were analyzed using confocal microscopy as described (12).

TC-1 tumors [3] = assay: Therapeutic vaccination in the established TC-1 tumor model; format: in vivo, C57BL/6 mice; conditions: single subcutaneous vaccination day 6 post-tumor challenge, E7 protein 50 μg plus adjuvant 25 μg/agent; 90 days observation
Excerpt: (§2) C57BL/6 mice were challenged subcutaneously with 1×10^5 live TC-1 cells into the right flank.

TC-1 tumors [4] = assay: TC-1 tumor model with antibody depletion of CD8+ or CD4+ T cells before vaccination; format: in vivo, mice; conditions: E7 + MPL
Protocol: as §2
To test if a high CD8^+ Teff/Treg cell ratio can serve as a predictor of vaccine therapeutic efficacy, we used antibodies against CD8 and CD4 molecules to deplete CD8^+ Teff and Treg cells, respectively. Mice with established TC-1 tumors were treated with depleting antibodies one day before vaccination with E7 protein admixed with SA-4-1BBL/MPL or MPL as monotherapy.

[5] = test system: intratumoral CD8^+ T cells and CD4^+Foxp3^+ Treg cells in TC-1 tumor; assay: Intratumoral CD8+ T cells and CD4+Foxp3+ Treg cells by confocal microscopy; format: in vivo, mice; conditions: one week post-vaccination
Protocol: as §1
Mice bearing ˜3-4 mm TC-1 tumor were vaccinated subcutaneously with various vaccine formulations. One week post-vaccination, tumors were harvested and analyzed for the presence of intratumoral CD8^+ T cells and CD4^+FoxP3^+ Treg cells using confocal microscopy. […] (FIG. 3A, B).

TC-1 target cells = assay: Cytotoxicity assay; format: cell-based, mice; conditions: splenocytes one week post-vaccination, 5 days E749-57 + IL-2, effectors against TC-1 for 4 hrs
Protocol: Mice with ˜3-4 mm TC-1 tumors in diameter were vaccinated subcutaneously with vaccine formulations containing E7 protein (50 μg) alone or with SA-4-1BBL (25 μg), MPL (25 μg), or the combination of both agents (25 μg/agent). One week post-vaccination, splenocytes were cultured with 10 μg of E749-57 peptide/mL in complete MLR medium supplemented with 50 IU/mL of IL-2. Viable lymphocytes were harvested 5 days later using a Ficoll gradient and used as effectors at various ratios against TC-1 target cells for 4 hrs as described (41).

Substance: 3-O-desacyl-4′-monophosphoryl lipid A [MPL]
- control of tumor growth (lung weight and presence of tumor nodules) [1]: statistically significant (P<0.05) effect in controlling tumor growth
- E7 TAA-specific CD8+ T cell IFN-γ response (primary) [2]: failed to do so
- eradication of established TC-1 tumors, mice tumor-free (TC-1 tumors [3]): 50%
- therapeutic efficacy (TC-1 tumors [4]; depletion of CD4+ T cells including Treg cells one day before vaccination): 100%
- therapeutic efficacy (TC-1 tumors [4]; without depletion): 50%
- intratumoral Teff/Treg cell ratio ([5]; TC-1 tumor): no effect
- number of intratumoral CD8+ T cells infiltration ([5]; TC-1 tumor): moderate effect
- number of intratumoral Treg cells ([5]; ~3-4 mm TC-1 tumor, versus PBS controls or E7 protein alone): did not have detectable effect
- TC-1 killing response (TC-1 target cells): failed to do so
